Results on six compounds are retold here after ChEMBL document CHEMBL1155994, “NO-NSAIDs: Gastric-sparing nitric oxide-releasable prodrugs of non-steroidal anti-inflammatory drugs” (Bioorg Med Chem Lett, 2009).

SMILES strings stand for the structures. Activity calls are given as the source filed them. The calls are words filed in the database; no cut-off is given here.

Series [1] has as its system Rattus norvegicus. The experiment in a line: Gastrointestinal toxicity in rat assessed as ulcerogenic index at dose equimolar to 100 mg/kg of diclofenac, po after 5 hrs. The format is organism-based. Also noted: dose 100 mg/kg, route oral. The settings on record: in vivo.
Series [2] has as its system Rattus norvegicus. Nature of the series: AUC in rat at po dose of equimolar to aspirin. The format is ADME, organism-based, Plasma. The settings on record: in vivo.
For series [3], the system named is Rattus norvegicus. Nature of the series: Antiinflammatory activity against carrageenan-induced paw edema in rat at dose equimolar to 150 mg/kg aspirin, po administered 1 hr before carrageenan challenge measured after 6 hrs by plethysmometer. The format is functional.
For series [4], the system named is Rattus norvegicus. Nature of the series: Antiinflammatory activity against carrageenan-induced paw edema in rat at dose equimolar to 150 mg/kg aspirin, po administered 1 hr before carrageenan challenge measured after 4 hrs by plethysmometer. Type of series: functional. The settings on record: at 150 mg/kg.
Series [5] has as its system Rattus norvegicus. The experiment in a line: Antiinflammatory activity against carrageenan-induced paw edema in rat at 150 mg/kg, po administered 1 hr before carrageenan challenge measured after 6 hrs by plethysmometer. Type of series: functional.
The nature of series [6]: AUC in rat at 150 mg/kg, po. Also noted: dose 150 mg/kg, route oral. The format is ADME, organism-based. The settings on record: plasma.
Series [7] deals with Rattus norvegicus. The experiment in a line: AUC in rat at 35 mg/kg, po. Type of series: ADME, organism-based, Plasma. Also noted: dose 35 mg/kg, route oral. The following applies: in vivo.
The subject of series [8] is Rattus norvegicus. Nature of the series: Antiinflammatory activity against carrageenan-induced paw edema in rat at 150 mg/kg, po administered 1 hr before carrageenan challenge measured after 4 hrs by plethysmometer. The format is functional.
In series [9] the test system is Rattus norvegicus. The experiment in a line: Gastrointestinal toxicity in rat assessed as ulcerogenic index at 100 mg/kg, po after 5 hrs. The format is organism-based. On the set-up: dose 100 mg/kg, route oral. The following applies: in vivo.
For series [10], the system named is Rattus norvegicus. The experiment in a line: Gastrointestinal toxicity in rat assessed as ulcerogenic index at dose equimolar to 100 mg/kg of aspirin, po after 3 hrs. The format is organism-based. Also noted: dose 100 mg/kg, route oral. The following applies: in vivo.
Series [11] has as its system Rattus norvegicus. Nature of the series: Effect on nitric oxide release in rat assessed as plasma nitrate/nitrite concentration at dose equimolar to 10 mg/kg of diclofenac, po by Griess method. Also noted: dose 10 mg/kg. Type of series: functional, organism-based.
Series [12] relates to Rattus norvegicus. The experiment in a line: Antiinflammatory activity against carrageenan-induced paw edema in rat at dose equimolar to 10 mg/kg aspirin, po administered 1 hr before carrageenan challenge measured after 6 hrs by plethysmometer. Type of series: functional.
Series [13] has as its system Rattus norvegicus. The experiment in a line: Antiinflammatory activity against carrageenan-induced paw edema in rat at 10 mg/kg, po administered 1 hr before carrageenan challenge measured after 6 hrs by plethysmometer. Type of series: functional.
Series [14] relates to Rattus norvegicus. Nature of the series: Gastrointestinal toxicity in rat assessed as ulcerogenic index at 100 mg/kg, po after 3 hrs. The format is organism-based. On the set-up: dose 100 mg/kg, route oral. The following applies: in vivo.
Series [15] in a line: AUC in rat at 10 mg/kg, po. Type of series: ADME, organism-based. Also noted: dose 10 mg/kg, route oral. The following applies: plasma.
In series [16] the test system is Rattus norvegicus. Nature of the series: Antiinflammatory activity against carrageenan-induced paw edema in rat at 10 mg/kg, po administered 1 hr before carrageenan challenge measured after 4 hrs by plethysmometer. The format is functional.

Regarding `CC(=O)Oc1ccccc1C(=O)OCCSSCCO[N+](=O)[O-]`, the UI in [1] was determined as 0 mm2. The same compound gave an AUC in [2] of 749 ug/hr.ml.
As to `CC(=O)Oc1ccccc1C(=O)OCC(=O)OCCSSCCO[N+](=O)[O-]`, in [3], the outcome was inactive. For the same compound, the inhibition entry in [4] is “inactive”.
Turning to `CC(=O)Oc1ccccc1C(=O)O` [ASPIRIN], the values for the inhibition in vivo at 150 mg/kg in series [5] and in series [8] were 31% and 30%, respectively. In addition, the AUC in series [6] was 4050 µg·h/mL; in series [7], 909 ug/hr.ml. In series [9], the UI was found to be 99 mm2.
Take `O=C(Cc1ccccc1Nc1c(Cl)cccc1Cl)OCCSSCCO[N+](=O)[O-]`: the UI in series [10] is reported as 0 mm2. The result in [11] was Active.
`O=C(COC(=O)Cc1ccccc1Nc1c(Cl)cccc1Cl)OCCSSCCO[N+](=O)[O-]`: the outcome in series [12] was inactive.
With `O=C(O)Cc1ccccc1Nc1c(Cl)cccc1Cl` [DICLOFENAC], in series [13], the inhibition in vivo at 10 mg/kg turned out to be 21%. Also, the UI in series [14] was 108 mm2. In series [15], this compound showed an AUC of 65 µg·h/mL. This compound registered an Activity in [16] of 55%.
